Laboratory results published in PubChem BioAssay (NCI).
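Exposure lasted 48 hours, with cells grown in 96-well plates and compounds tested at five concentrations. TGI: total growth inhibition.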

What was measured:
Test in all cases: inhibition of tumour cell growth, NCI panel, 48 h
LOX IMVI melanoma = test system: LOX IMVI melanoma
HOP-92 NSCLC = test system: HOP-92 NSCLC
HCT-15 colon = test system: HCT-15 colon
A498 renal = test system: A498 renal
SF-539 CNS = test system: SF-539 CNS
NCI-H226 lung = test system: NCI-H226 lung
OVCAR-5 ovarian = test system: OVCAR-5 ovarian
SF-268 CNS = test system: SF-268 CNS
SK-MEL-28 melanoma = test system: SK-MEL-28 melanoma
UACC-257 melanoma = test system: UACC-257 melanoma
SN12C renal = test system: SN12C renal
MDA-MB-435 = test system: MDA-MB-435
SF-295 CNS = test system: SF-295 CNS
DU-145 prostate = test system: DU-145 prostate
HOP-62 NSCLC = test system: HOP-62 NSCLC
PC-3 prostate = test system: PC-3 prostate
TK-10 renal = test system: TK-10 renal
SW-620 colon = test system: SW-620 colon
BT-549 breast = test system: BT-549 breast
SR leukemia = test system: SR leukemia
M14 melanoma = test system: M14 melanoma
CCRF-CEM leukemia = test system: CCRF-CEM leukemia
MDA-MB-231 breast = test system: MDA-MB-231 breast
HT29 colon = test system: HT29 colon
RPMI-8226 leukemia = test system: RPMI-8226 leukemia
HL-60(TB) leukemia = test system: HL-60(TB) leukemia
786-0 renal = test system: 786-0 renal
COLO 205 colon = test system: COLO 205 colon
MALME-3M melanoma = test system: MALME-3M melanoma
U251 CNS = test system: U251 CNS
MOLT-4 leukemia = test system: MOLT-4 leukemia
UACC-62 melanoma = test system: UACC-62 melanoma
SK-OV-3 ovarian = test system: SK-OV-3 ovarian
NCI/ADR-RES ovarian = test system: NCI/ADR-RES ovarian
A549 NSCLC = test system: A549 NSCLC
K-562 leukemia = test system: K-562 leukemia
IGROV1 ovarian = test system: IGROV1 ovarian
HS 578T breast = test system: HS 578T breast
ACHN renal = test system: ACHN renal
CAKI-1 renal = test system: CAKI-1 renal
NCI-H522 lung = test system: NCI-H522 lung
SNB-75 CNS = test system: SNB-75 CNS
SNB-19 CNS = test system: SNB-19 CNS
OVCAR-4 ovarian = test system: OVCAR-4 ovarian
KM12 colon = test system: KM12 colon
MCF7 breast = test system: MCF7 breast
NCI-H460 lung = test system: NCI-H460 lung
OVCAR-3 ovarian = test system: OVCAR-3 ovarian
HCC-2998 colon = test system: HCC-2998 colon
HCT-116 colon = test system: HCT-116 colon
RXF 393 renal = test system: RXF 393 renal
MDA-N = test system: MDA-N
SK-MEL-5 melanoma = test system: SK-MEL-5 melanoma
OVCAR-8 ovarian = test system: OVCAR-8 ovarian
EKVX NSCLC = test system: EKVX NSCLC
NCI-H23 lung = test system: NCI-H23 lung
T-47D breast = test system: T-47D breast
SK-MEL-2 melanoma = test system: SK-MEL-2 melanoma
UO-31 renal = test system: UO-31 renal

Q: What does the source list for CCCCCCCCCCCCCCCCCCNc1ccn(C2OC(CO)C(OP(=O)(O)OCC(COP(=O)(O)OCC3OC(n4cc(F)c(NCCCCCCCCCCCCCCCCCC)nc4=O)CC3O)OC(=O)CCCCCCCCCCCCCCC)C2O)c(=O)n1 (stereo not drawn)?
A: TGI (LOX IMVI melanoma): > 100 µM; TGI (HOP-92 NSCLC): > 100 µM; TGI (HCT-15 colon): > 100 µM; TGI (A498 renal): > 100 µM; TGI (SF-539 CNS): > 100 µM; TGI (NCI-H226 lung): > 100 µM; TGI (OVCAR-5 ovarian): > 100 µM; TGI (SF-268 CNS): > 100 µM; TGI (SK-MEL-28 melanoma): > 100 µM; TGI (UACC-257 melanoma): > 100 µM; TGI (SN12C renal): > 100 µM; TGI (MDA-MB-435): > 100 µM; TGI (SF-295 CNS): > 100 µM; TGI (DU-145 prostate): > 100 µM; TGI (HOP-62 NSCLC): > 100 µM; TGI (PC-3 prostate): > 100 µM; TGI (TK-10 renal): > 100 µM; TGI (SW-620 colon): > 100 µM; TGI (BT-549 breast): > 100 µM; TGI (SR leukemia): > 100 µM; TGI (M14 melanoma): > 100 µM; TGI (CCRF-CEM leukemia): > 100 µM; TGI (MDA-MB-231 breast): > 100 µM; TGI (HT29 colon): > 100 µM; TGI (RPMI-8226 leukemia): > 100 µM; TGI (HL-60(TB) leukemia): > 100 µM; TGI (786-0 renal): > 100 µM; TGI (COLO 205 colon): > 100 µM; TGI (MALME-3M melanoma): > 100 µM; TGI (U251 CNS): > 100 µM; TGI (MOLT-4 leukemia): > 100 µM; TGI (UACC-62 melanoma): > 100 µM; TGI (SK-OV-3 ovarian): > 100 µM; TGI (NCI/ADR-RES ovarian): > 100 µM; TGI (A549 NSCLC): > 100 µM; TGI (K-562 leukemia): > 100 µM; TGI (IGROV1 ovarian): > 100 µM; TGI (HS 578T breast): > 100 µM; TGI (ACHN renal): > 100 µM; TGI (CAKI-1 renal): > 100 µM; TGI (NCI-H522 lung): > 100 µM; TGI (SNB-75 CNS): > 100 µM; TGI (SNB-19 CNS): > 100 µM; TGI (OVCAR-4 ovarian): > 100 µM; TGI (KM12 colon): > 100 µM; TGI (MCF7 breast): > 100 µM; TGI (NCI-H460 lung): > 100 µM; TGI (OVCAR-3 ovarian): > 100 µM; TGI (HCC-2998 colon): > 100 µM; TGI (HCT-116 colon): > 100 µM; TGI (RXF 393 renal): > 100 µM; TGI (MDA-N): > 100 µM; TGI (SK-MEL-5 melanoma): > 100 µM; TGI (OVCAR-8 ovarian): > 100 µM; TGI (EKVX NSCLC): > 100 µM; TGI (NCI-H23 lung): > 100 µM; TGI (T-47D breast): > 100 µM; TGI (SK-MEL-2 melanoma): > 100 µM; TGI (UO-31 renal): > 100 µM

Q: CCOC(=O)C1C(=O)CC(O)(c2ccccc2)C(C(=O)OCC)C1c1ccc(N(C)C)cc1 (stereo not drawn) was tested. Which TGI (LOX IMVI melanoma) did it give?
A: > 100 µM

Q: And the TGI (HOP-92 NSCLC)?
A: > 81.7 µM

Q: What about the TGI (HCT-15 colon) of the same compound?
A: > 100 µM

Q: And the TGI (A498 renal)?
A: > 100 µM

Q: What about the TGI (SF-539 CNS) of the same compound?
A: 37 µM

Q: What about the TGI (NCI-H226 lung) of the same compound?
A: > 100 µM

Q: What about the TGI (OVCAR-5 ovarian) of the same compound?
A: > 100 µM

Q: And the TGI (SF-268 CNS)?
A: > 93.5 µM

Q: What about the TGI (SK-MEL-28 melanoma) of the same compound?
A: > 100 µM

Q: What about the TGI (UACC-257 melanoma) of the same compound?
A: > 100 µM

Q: What about the TGI (SN12C renal) of the same compound?
A: > 100 µM

Q: What about the TGI (MDA-MB-435) of the same compound?
A: 25.9 µM

Q: And the TGI (SF-295 CNS)?
A: 29.8 µM

Q: And the TGI (DU-145 prostate)?
A: > 100 µM

Q: And the TGI (HOP-62 NSCLC)?
A: > 88.8 µM

Q: And the TGI (PC-3 prostate)?
A: > 100 µM

Q: And the TGI (TK-10 renal)?
A: > 100 µM

Q: What about the TGI (SW-620 colon) of the same compound?
A: > 100 µM

Q: What about the TGI (BT-549 breast) of the same compound?
A: > 100 µM

Q: What about the TGI (SR leukemia) of the same compound?
A: 49.1 µM

Q: What about the TGI (M14 melanoma) of the same compound?
A: > 100 µM

Q: And the TGI (CCRF-CEM leukemia)?
A: > 65.1 µM

Q: And the TGI (MDA-MB-231 breast)?
A: > 77.1 µM

Q: What about the TGI (HT29 colon) of the same compound?
A: > 58.5 µM

Q: What about the TGI (RPMI-8226 leukemia) of the same compound?
A: 37.4 µM

Q: What about the TGI (HL-60(TB) leukemia) of the same compound?
A: 40 µM

Q: And the TGI (786-0 renal)?
A: > 100 µM

Q: What about the TGI (COLO 205 colon) of the same compound?
A: 53.5 µM

Q: What about the TGI (MALME-3M melanoma) of the same compound?
A: > 85.6 µM

Q: And the TGI (U251 CNS)?
A: > 81.2 µM

Q: What about the TGI (MOLT-4 leukemia) of the same compound?
A: > 84.1 µM

Q: And the TGI (UACC-62 melanoma)?
A: > 100 µM

Q: What about the TGI (SK-OV-3 ovarian) of the same compound?
A: 52 µM

Q: What about the TGI (NCI/ADR-RES ovarian) of the same compound?
A: > 78.2 µM

Q: What about the TGI (A549 NSCLC) of the same compound?
A: > 100 µM

Q: And the TGI (K-562 leukemia)?
A: > 100 µM

Q: And the TGI (IGROV1 ovarian)?
A: > 100 µM

Q: And the TGI (HS 578T breast)?
A: 23.1 µM

Q: What about the TGI (ACHN renal) of the same compound?
A: > 100 µM

Q: What about the TGI (CAKI-1 renal) of the same compound?
A: > 100 µM

Q: What about the TGI (NCI-H522 lung) of the same compound?
A: 30.7 µM

Q: What about the TGI (SNB-75 CNS) of the same compound?
A: 64.9 µM

Q: What about the TGI (SNB-19 CNS) of the same compound?
A: > 79.9 µM

Q: What about the TGI (OVCAR-4 ovarian) of the same compound?
A: > 100 µM

Q: What about the TGI (KM12 colon) of the same compound?
A: > 100 µM

Q: What about the TGI (MCF7 breast) of the same compound?
A: > 100 µM

Q: What about the TGI (NCI-H460 lung) of the same compound?
A: > 83.8 µM

Q: What about the TGI (OVCAR-3 ovarian) of the same compound?
A: > 75.1 µM

Q: And the TGI (HCC-2998 colon)?
A: > 100 µM

Q: What about the TGI (HCT-116 colon) of the same compound?
A: > 100 µM

Q: What about the TGI (RXF 393 renal) of the same compound?
A: 44.4 µM

Q: What about the TGI (MDA-N) of the same compound?
A: 33.7 µM

Q: And the TGI (SK-MEL-5 melanoma)?
A: 72.3 µM

Q: What about the TGI (OVCAR-8 ovarian) of the same compound?
A: > 65.9 µM

Q: What about the TGI (EKVX NSCLC) of the same compound?
A: > 100 µM

Q: And the TGI (NCI-H23 lung)?
A: > 93.9 µM

Q: What about the TGI (T-47D breast) of the same compound?
A: > 92.5 µM

Q: And the TGI (SK-MEL-2 melanoma)?
A: > 94 µM

Q: What about the TGI (UO-31 renal) of the same compound?
A: > 100 µM
